Source: patent publication US9958452B2, “Highly fluorogenic protein labelling agents” (UNIVERSITY OF OTTAWA, priority 2015, dated 2018)

How the values were obtained:
[1] = test system: MBP-dC10α; experiment: Fluorescence enhancement of fluorogen after labelling of test protein MBP-dC10α; format: biochemical; conditions: for fluorescence enhancement after reaction with MBP-dC10α: 25 μM fluorogen + 25 μM MBP-dC10α, overnight at 37° C., ratio of intensity at emission maximum; for background (latent) fluorescence of the unreacted fluorogen: 25 μM fluorogen without MBP-dC10α, 50 mM HEPES pH 7.4, 5% DMSO
Procedure: 3. Determination of Fluorescence Properties of Fluorogens, Fluorescence Changes after Labelling of Target Protein, Selectivity Over Other Thiols, and Fluorescence Enhancement Ratios.
(§1) Emission spectra and fluorescence intensity measurements were recorded at 37° C. with a Synergy H4 Hybrid Multi-Mode Microplate Reader with excitation and emission monochromators set at 9 nm bandpass. Concentrations of 2.5, 5, 12.5, 20, and 25 μM of MBP-dC10α were reacted with 25 μM YC23. The mixture of 25 μM solution of YC23 and 2.5, 5, 12.5 20, or 25 μM MBP-dC10α in 50 mM HEPES buffer (pH 7.4) with 5% DMSO was incubated at 37° C. in the dark for overnight after which the fluorescence emission spectrum was recorded (λex=480 nm). The emission spectra of YC23 in the same solution without MBP-dC10α were also recorded. The ratio of fluorescence intensity at maximum emission gave the fluorescence enhancement ratio. Selectivity tests were done with same protocol but with different concentrations of thiols. The mixture of 25 μM solution of YC28 or YC29 and 25 μM MBP-dC10α in 50 mM HEPES buffer (pH 7.4) with 5% DMSO was incubated at 37° C. in the dark for overnight after which the fluorescence emission spectrum was recorded. The emission spectra of YC28 or YC29 in the same solution without MBP-dC10α were also recorded. The ratio of fluorescence intensity at maximum emission gave the fluorescence enhancement ratio. λex for YC28 is 540 nm and λex for YC29 is 580 nm. Excitation and emission spectra were obtained for 25 μM of MBP-dC10α labelled with one equivalent of YC23 (FIG. 10), YC28 (FIG. 11a) or YC29 (FIG. 11b).

[2] = Selectivity over other thiols, overnight incubation; format: biochemical; conditions: 25 μM YC23 overnight; 250 μM Cys and Hcy, 1 mM GSH vs 25 μM MBP-dC10α
Procedure: The selectivity of fluorogen YC23 was tested by incubating it overnight in the presence of MBP-dC10α or other intracellular thiols.
as §1, with “Excitation and emission spectra were obtained for 25 μM of MBP-dC10α labelled with one equivalent of YC23 (FIG. 10), YC28 (FIG. 11a) or YC29 (FIG. 11b).” left out

[3] = test system: MBP-dC10α; experiment: Time-dependent fluorescence increase for kinetic studies with MBP-dC10α; format: biochemical
Procedure: 4. Time-Dependent Fluorescence Increase for Kinetic Studies.
Protein labelling kinetics were studied by following the time-dependent fluorescence increase at 37° C. using a Synergy H4 Hybrid Multi-Mode Microplate Reader with excitation and emission monochromators set at a 9-nm bandpass. The reaction was prepared in 50 mM HEPES buffer (pH 7.4) with 5% DMSO. Solutions of MBP-dC10α were prepared in a 96-well plate and labelling reagent YC23, YC28 or YC29 in DMSO was added immediately before recording. The final concentrations of YC23, YC28, YC29 and of MBP-dC10α were all 25 μM in 50 mM HEPES buffer (pH 7.4) with 5% DMSO. Samples were excited at 495 nm (YC23), 540 nm (YC28) or 580 nm (YC29) and fluorescence intensity was followed at 525 nm (YC23), 590 nm (YC28) or 630 nm (YC29) as a function of time.

[4] = test system: MBP-dC10α; experiment: Labelling of MBP-dC10α, purified and in bacterial lysate, analysed by SDS-PAGE after heat denaturation; format: biochemical, Escherichia coli
Procedure: 10% SDS-PAGE gels developed by (A) fluorescence (λex=491 nm, λem=508 nm) and (B) Coomassie staining are shown. Lane 1: molecular weight markers. Lanes 2-3: Purified MBP-[…]α, concentrated to 50 μM and (lane 3) labelled with 50 μM YC23, prior to 10-fold dilution and loading. Lanes 4-6: Soluble lysate of bacteria expressing MBP-[…]α, treated with 10, 50, or 100 μM YC23 respectively and 0.5 mM TCEP overnight, prior to loading. The thiol addition reaction of a maleimide group typically results in the formation of robust covalent bonds, which should be stable under conditions in which the labelled protein may itself undergo denaturation. To test this hypothesis, we expressed MBP-[…]α in Escherichia coli and used YC23 to label the test protein in bacterial lysate as well as the purified test protein. These samples were then heated to 95° C. for 15 min, prior to analysis by SDS-PAGE. […] Furthermore, as shown in lanes 4-6, as little as 10 μM of YC23 was sufficient to label the test protein, in the complex biological mixture of cell lysate.

[5] = test system: histone-H2B-dC10α in HEK293T cells; experiment: Cellular labelling with confocal fluorescence microscopy; format: cell-based, Human; conditions: for fluorescence in cells transfected with histone-H2B-dC10α / fluorescence in negative-control cells (pcDNA / mock DNA): HEK293T, 10 μM fluorogen; for fluorescence in cells transfected with histone-H2B-dC10α: 30 min (YC23) or 45 min (YC29); for fluorescence in negative-control cells (pcDNA / mock DNA): same conditions
Procedure: HEK 293T cells were plated into 60-mm dishes and grown in MEM supplemented with 10% FBS, 100 units/mL of penicillin and 100 μg/mL of streptomycin for 16 h before transfection. Cells were transiently transfected with histone H2B-dC10α or pcDNA3.1 (mock) using lipofectamine 2000 following the manufacturer's instructions. […] Cells were observed and imaged on a Nikon confocal microscope with a 25× objective. Images were taken and analyzed with NIS-Elements software.

[6] = test system: HEK293T cells; experiment: MTT assay cytotoxicity; format: cell-based, Human; conditions: up to 100 μM, 20 hours
Procedure: 3-(4,5-Dimethylthiazol-2-yl)-2,5-diphenyl tetrazolium bromide (MTT) is a yellow tetrazolium salt and can be reduced to formazan crystals, which are insoluble in aqueous solutions, by active mitochondria in living cells. The resulting intracellular purple formazan can be dissolved in Triton X100, and therefore quantified by measuring absorption of the solution.
Cells were seeded in a 96-well plate and incubated with 100 μL of culture medium with different amounts of the fluorogen YCx for 20 h. No fluorogen was added to the positive control and no cells were plated in the negative control. Portions of 25 μL of MTT solution (5 mg in 1 mL of Hanks' balanced salt solution) were added to the wells and the cells were further incubated at 37° C. for 4 h. Solubilization solutions (100 μL) were then added and incubated in 96-well plates at room temperature in the dark overnight. The absorption of each well was measured using a plate reader at a wavelength of 570 nm with 690 nm as a reference. Cell viability was calculated according to the following equation: Cell viability=(Awith fluorogen−Anegative control)/(Apositive control−Anegative control)×100%

[7] = test system: MBP-dC10α; experiment: Excitation and emission spectra of fluorogen-labelled MBP-dC10α; format: physicochemical; conditions: 25 μM MBP-dC10α labelled with one equivalent of fluorogen
Procedure: as §1

[8] = Time-dependent fluorescence increase with excess glutathione; format: biochemical

COC1=CC(=O)N(c2ccc(C3=C4C(C)=CC(C)=[N+]4[B-](F)(F)n4c(C)cc(C)c43)c(N3C(=O)C=C(OC)C3=O)c2)C1=O [YC23, 10-(2,4-Bis(3-methoxy-2,5-dioxo-2,5-dihydro-1H-pyrrol-1-yl)phenyl)-5,5-difluoro-1,3,7,9-tetramethyl-5H-dipyrrolo[1,2-c:2′,1′-f][1,3,2]diazaborinin-4-ium-5-uide]
dependence of fluorescence increase on MBP-dC10α concentration ([1]; 25 μM YC23, 2.5-25 μM MBP-dC10α): concentration-dependent | fluorescence enhancement after reaction with MBP-dC10α [1]: ca. 800 fold | background (latent) fluorescence of the unreacted fluorogen [1]: negligible background fluorescence | fluorescence after incubation with other thiols relative to MBP-dC10α [2]: < 10% | time required to approach maximum fluorescence ([3]; 25 μM fluorogen + 25 μM MBP-dC10α, 37° C.): more than 4 hours | fluorescence increase after 15 min ([3]; 25 μM fluorogen + 25 μM MBP-dC10α, 37° C., 15 min): 10 fold | fluorescence of labelled purified test protein under denaturing conditions ([4]; 95° C. for 15 min, then SDS-PAGE): maintained its fluorescence | concentration sufficient to label the test protein in cell lysate ([4]; soluble bacterial lysate, 0.5 mM TCEP, overnight): ≤ 10 µM | fluorescence in cells transfected with histone-H2B-dC10α [5]: strongly green fluorescent | fluorescence in negative-control cells (pcDNA / mock DNA) [5]: negligible fluorescence | effect on cell viability [6]: negligible effect on cell viability | emission maximum of labelled MBP-dC10α [7]: 525 nm | excitation maximum of labelled MBP-dC10α [7]: 510 nm

COC(=O)CSC1=[N+]2C(=C(c3ccccc3)c3ccc(Nc4cc(N5C(=O)C=C(OC)C5=O)cc(N5C(=O)C=C(OC)C5=O)c4)n3[B-]2(F)F)C=C1 [YC28, 7-((3,5-bis(3-methoxy-2,5-dioxo-2,5-dihydro-1H-pyrrol-1-yl)phenyl)amino)-5,5-difluoro-3-((2-methoxy-2-oxoethyl)thio)-10-phenyl-5H-dipyrrolo[1,2-c:2′,1′-f][1,3,2]diazaborinin-4-ium-5-uide]
fluorescence enhancement after reaction with MBP-dC10α [1]: 579 fold | background (latent) fluorescence of the unreacted fluorogen [1]: effectively quenched | kinetic selectivity for MBP-dC10α relative to GSH ([8]; 25 μM MBP vs 5 mM GSH): acceptable but not excellent | emission maximum of labelled MBP-dC10α [7]: 592 nm

COC1=CC(=O)N(c2cc(Nc3ccc4n3[B-](F)(F)[N+]3=C(N(C)c5ccccc5)C=CC3=C4c3ccccc3)cc(N3C(=O)C=C(OC)C3=O)c2)C1=O [YC29, 7-((3,5-bis(3-methoxy-2,5-dioxo-2,5-dihydro-1H-pyrrol-1-yl)phenyl)amino)-5,5-difluoro-3-(methyl(phenyl)amino)-10-phenyl-5H-dipyrrolo[1,2-c:2′,1′-f][1,3,2]diazaborinin-4-ium-5-uide]
fluorescence enhancement after reaction with MBP-dC10α [1]: 308 fold | background (latent) fluorescence of the unreacted fluorogen [1]: efficiently quenched | reaction with MBP-dC10α test protein (time-dependent fluorescence) ([3]; 25 μM fluorogen, 25 μM MBP-dC10α): reacted readily | reaction with GSH (time-dependent fluorescence) ([8]; 5 mM GSH): did not show any detectable reaction | stability and selectivity of the fluorogen ([8]; in presence of GSH vs MBP-dC10α): excellent stability and selectivity | localisation of fluorescence in transfected cells ([5]; HEK293T expressing histone H2B-dC10α, 10 μM, 45 min): localized in the nucleus | fluorescence in cells transfected with histone-H2B-dC10α [5]: Intense red fluorescence | fluorescence in negative-control cells (pcDNA / mock DNA) [5]: no red fluorescence was detected | emission maximum of labelled MBP-dC10α [7]: 630 nm
